{"source": "patent US12350270B2", "about": "“Antimalarial agents” (Merck Sharp & Dohme LLC, priority 2019, dated 2025)", "data": [{"tested_on": "parasites (ring stage, in human red blood cell culture)", "test": "Parasite LDH growth assay (antiparasite potency, Parasite Assay)", "assay_type": "cell-based, Plasmodium falciparum", "conditions": "0.7% rings, 2% haematocrit, 72 hours at 37° C., LDH readout of parasite growth", "in_short": "(§1)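 Growth was read by an LDH assay after a freeze–thaw cycle (−80 °C overnight, 4 h thaw at RT). Before that, parasites grew with compound for 72 h at 37 °C under gassed, humidified conditions. The input was a ring-stage culture adjusted to 0.7% parasitemia and 2% haematocrit in serum (5%)/albumax (0.5%)-supplemented RPMI-Hepes.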", "units": {"EC50": "nM"}, "values": [{"smiles": "CCC1(CC)CC(=O)N(C2c3cc(C(=O)N[C@@H]4c5ccccc5C[C@H]4O)ccc3OC2(C)C)C(=N)N1", "note": "(stereo partly drawn) [Example 127B, 3-(4,4-diethyl-2-imino-6-oxo-hexahydropyrimidin-1-yl)-N-[(1R,2R)-2-hydroxyindan-1-yl]-2,2-dimethyl-3H-benzofuran-5-carboxamide]", "EC50": 222}]}, {"tested_on": "parasites (ring stage, in human red blood cell culture)", "test": "Parasite LDH growth assay (antiparasite potency, Parasite Assay)", "assay_type": "cell-based, Plasmodium falciparum", "conditions": "Plasmodium falciparum, Erythrocyte, 72 h, 0.7% rings, 2% haematocrit, 72 hours at 37° C., LDH readout of parasite growth", "in_short": "as §1", "units": {"EC50": "nM"}, "values": [{"smiles": "CC1(C)CC(=O)N(C2c3cc(C(=O)N[C@@H]4c5ccccc5C[C@]4(C)O)ccc3OC2(C)C)C(=N)N1", "note": "(stereo partly drawn) [Example 108, N-[(1R,2S)-2-hydroxy-2-methyl-indan-1-yl]-3-(2-imino-4,4-dimethyl-6-oxo-hexahydropyrimidin-1-yl)-2,2-dimethyl-3H-benzofuran-5-carboxamide]", "EC50": 74.3}, {"smiles": "CO[C@@H]1COc2ccccc2[C@H]1NC(=O)c1ccc2c(c1)[C@H](N1C(=N)NC(C)(C)CC1=O)CCO2", "note": "[Example 109, (4R)-4-(2-imino-4,4-dimethyl-6-oxo-hexahydropyrimidin-1-yl)-N-[(3S,4R)-3-methoxychroman-4-yl]chromane-6-carboxamide]", "EC50": 14}, {"smiles": "COC1COc2ccc(C(=O)N[C@@H]3c4ccccc4C[C@H]3O)cc2C1N1C(=N)NC(C)(C)CC1=O", "note": "(stereo partly drawn) [Example 110, N-[(1R,2R)-2-hydroxyindan-1-yl]-4-(2-imino-4,4-dimethyl-6-oxo-hexahydropyrimidin-1-yl)-3-methoxy-chromane-6-carboxamide]", "EC50": 60}, {"smiles": "CCC1(CC)CC(=O)N([C@@H]2CCOc3ccc(C(=O)N[C@@H](C)c4ccccc4OC)cc32)C(=N)N1", "note": "[Example 111, (4R)-4-(4,4-diethyl-2-imino-6-oxo-hexahydropyrimidin-1-yl)-N-[(1S)-1-(2-methoxyphenyl)ethyl]chromane-6-carboxamide]", "EC50": 90}, {"smiles": "CC1(C)CC(=O)N([C@@H]2CCOc3ccc(C(=O)N[C@@H]4c5cc(F)ccc5OC[C@H]4O)cc32)C(=N)N1", "note": "[Example 112, (4R)-N-[(3S,4R)-6-fluoro-3-hydroxy-chroman-4-yl]-4-(2-imino-4,4-dimethyl-6-oxo-hexahydropyrimidin-1-yl)chromane-6-carboxamide]", "EC50": 11.4}, {"smiles": "CC1(C)CC(=O)N([C@@H]2CC(C)(C)c3ccc(C(=O)N[C@H]4CC(C)(C)Oc5ccccc54)cc32)C(=N)N1", "note": "[Example 113, (3R)-N-[(4S)-2,2-dimethylchroman-4-yl]-3-(2-imino-4,4-dimethyl-6-oxo-hexahydropyrimidin-1-yl)-1,1-dimethyl-indane-5-carboxamide]", "EC50": 16.4}, {"smiles": "CCC1(CC)CC(=O)N([C@@H]2CCCc3ccc(C(=O)N[C@@H]4c5ccccc5C[C@@]4(C)O)cc32)C(=N)N1", "note": "[Example 114, (4R)-4-(4,4-diethyl-2-imino-6-oxo-hexahydropyrimidin-1-yl)-N-[(1R,2R)-2-hydroxy-2-methyl-indan-1-yl]tetralin-6-carboxamide]", "EC50": 1.8}, {"smiles": "CCC1(CC)CC(=O)N([C@@H]2C[C@@H](OC)c3ccc(C(=O)N[C@@H]4c5ccccc5C[C@H]4O)cc32)C(=N)N1", "note": "[Example 115, (1R,3R)-3-(4,4-diethyl-2-imino-6-oxo-hexahydropyrimidin-1-yl)-N-[(1R,2R)-2-hydroxyindan-1-yl]-1-methoxy-indane-5-carboxamide]", "EC50": 3.6}, {"smiles": "CCC1(CC)CC(=O)N([C@H]2C[C@@H](OC)c3ccc(C(=O)N[C@@H]4c5ccccc5C[C@H]4O)cc32)C(=N)N1", "note": "[Example 116, (1R,3S)-3-(4,4-diethyl-2-imino-6-oxo-hexahydropyrimidin-1-yl)-N-[(1R,2R)-2-hydroxyindan-1-yl]-1-methoxy-indane-5-carboxamide]", "EC50": 210}, {"smiles": "CCC1(CC)CC(=O)N([C@@H]2C[C@H](OC)c3ccc(C(=O)N[C@@H]4c5ccccc5C[C@H]4O)cc32)C(=N)N1", "note": "[Example 117, (1S,3R)-3-(4,4-diethyl-2-imino-6-oxo-hexahydropyrimidin-1-yl)-N-[(1R,2R)-2-hydroxyindan-1-yl]-1-methoxy-indane-5-carboxamide]", "EC50": 2.5}, {"smiles": "CCC1(CC)CC(=O)N([C@H]2c3cc(C(=O)N[C@@H]4c5ccccc5C[C@H]4O)ccc3OC[C@H]2C)C(=N)N1", "note": "[Example 118, (3S,4R)-4-(4,4-diethyl-2-imino-6-oxo-hexahydropyrimidin-1-yl)-N-[(1R,2R)-2-hydroxyindan-1-yl]-3-methyl-chromane-6-carboxamide]", "EC50": 0.9}, {"smiles": "CCC1(CC)CC(=O)N([C@@H]2CCOc3ccc(C(=O)NC4CCCOc5ccccc54)cc32)C(=N)N1", "note": "(stereo partly drawn) [Example 119, (4R)-4-(4,4-diethyl-2-imino-6-oxo-hexahydropyrimidin-1-yl)-N-(2,3,4,5-tetrahydro-1-benzoxepin-5-yl)chromane-6-carboxamide]", "EC50": 2.8}, {"smiles": "CCC1(CC)CC(=O)N([C@H]2c3cc(C(=O)N[C@@H]4c5ccccc5C[C@H]4O)ccc3OC[C@@H]2C)C(=N)N1", "note": "[Example 120, (3R,4R)-4-(4,4-diethyl-2-imino-6-oxo-hexahydropyrimidin-1-yl)-N-[(1R,2R)-2-hydroxyindan-1-yl]-3-methyl-chromane-6-carboxamide]", "EC50": 0.8}, {"smiles": "CC[C@]1(C)CC(=O)N([C@@H]2CCc3ccc(C(=O)N[C@@H]4c5ccccc5OC(C)(C)[C@H]4O)cc32)C(=N)N1", "note": "[Example 121, (3R)-3-[(4R)-4-ethyl-2-imino-4-methyl-6-oxo-hexahydropyrimidin-1-yl]-N-[(3S,4R)-3-hydroxy-2,2-dimethyl-chroman-4-yl]indane-5-carboxamide]", "EC50": 0.6}, {"smiles": "CCC1(CC)CC(=O)N([C@@H]2CCc3ccc(C(=O)N[C@@H]4c5ccccc5OC[C@]4(C)O)cc32)C(=N)N1", "note": "[Example 122, (3R)-3-(4,4-diethyl-2-imino-6-oxo-hexahydropyrimidin-1-yl)-N-[(3R,4R)-3-hydroxy-3-methyl-chroman-4-yl]indane-5-carboxamide]", "EC50": 3.9}, {"smiles": "CCC1(CC)CC(=O)N([C@@H]2CCc3ccc(C(=O)N[C@@H]4c5ccccc5OC[C@@]4(C)O)cc32)C(=N)N1", "note": "[Example 123, (3R)-3-(4,4-diethyl-2-imino-6-oxo-hexahydropyrimidin-1-yl)-N-[(3S,4R)-3-hydroxy-3-methyl-chroman-4-yl]indane-5-carboxamide]", "EC50": 2.8}, {"smiles": "CC1(C)CC(=O)N([C@@H]2CC(C)(C)c3ccc(C(=O)N[C@@H]4c5ccccc5OC[C@@]4(C)O)cc32)C(=N)N1", "note": "[Example 124, (3R)-N-[(3S,4R)-3-hydroxy-3-methyl-chroman-4-yl]-3-(2-imino-4,4-dimethyl-6-oxo-hexahydropyrimidin-1-yl)-1,1-dimethyl-indane-5-carboxamide]", "EC50": 57.5}, {"smiles": "CCC1(CC)CC(=O)N([C@@H]2CCCc3ccc(C(=O)N[C@@H]4c5ccccc5OC[C@H]4O)cc32)C(=N)N1", "note": "[Example 125, (4R)-4-(4,4-diethyl-2-imino-6-oxo-hexahydropyrimidin-1-yl)-N-[(3S,4R)-3-hydroxychroman-4-yl]tetralin-6-carboxamide]", "EC50": 2.1}, {"smiles": "CC[C@]1(C)CC(=O)N([C@H]2c3cc(C(=O)N[C@@H]4c5ccccc5C[C@H]4O)ccc3OCC2(C)C)C(=N)N1", "note": "[Example 126, (4R)-4-[(4R)-4-ethyl-2-imino-4-methyl-6-oxo-hexahydropyrimidin-1-yl]-N-[(1R,2R)-2-hydroxyindan-1-yl]-3,3-dimethyl-chromane-6-carboxamide]", "EC50": 14.3}, {"smiles": "CCC1(CC)CC(=O)N(C2c3cc(C(=O)N[C@@H]4c5ccccc5C[C@H]4O)ccc3OC2(C)C)C(=N)N1", "note": "(stereo partly drawn) [Example 127A, 3-(4,4-diethyl-2-imino-6-oxo-hexahydropyrimidin-1-yl)-N-[(1R,2R)-2-hydroxyindan-1-yl]-2,2-dimethyl-3H-benzofuran-5-carboxamide]", "EC50": 202}, {"smiles": "CCC1(CC)CC(=O)N([C@@H]2C[C@@H](C)Oc3ccc(C(=O)N[C@@H]4c5ccccc5C[C@H]4O)cc32)C(=N)N1", "note": "[Example 128, (2R,4R)-4-(4,4-diethyl-2-imino-6-oxo-hexahydropyrimidin-1-yl)-N-[(1R,2R)-2-hydroxyindan-1-yl]-2-methyl-chromane-6-carboxamide]", "EC50": 2.8}, {"smiles": "CC[C@]1(C)CC(=O)N([C@@H]2C[C@@H](C)Oc3ccc(C(=O)N[C@@H]4c5ccccc5C[C@@]4(C)O)cc32)C(=N)N1", "note": "[Example 129, (2R,4R)-4-[(4R)-4-ethyl-2-imino-4-methyl-6-oxo-hexahydropyrimidin-1-yl]-N-[(1R,2R)-2-hydroxy-2-methyl-indan-1-yl]-2-methyl-chromane-6-carboxamide]", "EC50": 3.5}, {"smiles": "CC[C@]1(C)CC(=O)N([C@@H]2C[C@@H](C)c3ccc(C(=O)N[C@@H]4c5ccccc5OC[C@]4(C)O)cc32)C(=N)N1", "note": "[Example 130, (1R,3R)-3-[(4R)-4-ethyl-2-imino-4-methyl-6-oxo-hexahydropyrimidin-1-yl]-N-[(3R,4R)-3-hydroxy-3-methyl-chroman-4-yl]-1-methyl-indane-5-carboxamide]", "EC50": 2.1}, {"smiles": "CC[C@]1(C)CC(=O)N([C@@H]2C[C@@H](C)c3ccc(C(=O)N[C@@H]4c5ccccc5OC[C@@]4(C)O)cc32)C(=N)N1", "note": "[Example 131, (1R,3R)-3-[(4R)-4-ethyl-2-imino-4-methyl-6-oxo-hexahydropyrimidin-1-yl]-N-[(3S,4R)-3-hydroxy-3-methyl-chroman-4-yl]-1-methyl-indane-5-carboxamide]", "EC50": 2}, {"smiles": "CCC1(CC)CC(=O)N([C@@H]2CCCOc3ccc(C(=O)N[C@@H]4c5ccccc5C[C@H]4O)cc32)C(=N)N1", "note": "[Example 132, (5R)-5-(4,4-diethyl-2-imino-6-oxo-hexahydropyrimidin-1-yl)-N-[(1R,2R)-2-hydroxyindan-1-yl]-2,3,4,5-tetrahydro-1-benzoxepine-7-carboxamide]", "EC50": 1.6}, {"smiles": "CC1(C)CC(=O)N(C2c3cc(C(=O)N[C@H]4CC(C)(C)Oc5ccccc54)ccc3OC2(C)C)C(=N)N1", "note": "(stereo partly drawn) [Example 134, N-[(4S)-2,2-dimethylchroman-4-yl]-3-(2-imino-4,4-dimethyl-6-oxo-hexahydropyrimidin-1-yl)-2,2-dimethyl-3H-benzofuran-5-carboxamide]", "EC50": 8.8}]}]}
